These results are taken from ChEMBL document CHEMBL1152688, “Bioorganic synthesis of a recombinant HIV-1 fusion inhibitor, SC35EK, with an N-terminal pyroglutamate capping group” (Bioorg Med Chem, 2009).

Broadly, the EC50 is the concentration that produces a half-maximal response.

Non-standard residues stand in square brackets, D forms with d. Residues, ends and D or L forms follow the SMILES beside them. *: point of attachment. hSer(lactone) = O=C1OCC[C@@H]1N*; pGlu = O=C1CC[C@@H](C(=O)O)N1

For data set [1], the system named is Human immunodeficiency virus 1. Put plainly: Antiviral activity against HIV1 NL4-3 infected in human HeLa cells expressing CD4/CCR5-LTR-beta-gal genes assessed as blockade of viral infection by X-gal staining based MAGI method. The data set is classed as functional, organism-based. To be noted: Human immunodeficiency virus 1, NL4-3, HeLa.
A further data set relates to Serum. Description: Stability in mouse serum assessed as compound degradation by LC-MS analysis. The data set is classed as ADME, cell-free.

`CC[C@H](C)[C@H](NC(=O)[C@H](CC(C)C)NC(=O)[C@H](CCC(=O)O)NC(=O)[C@H](CCC(=O)O)NC(=O)[C@@H](NC(=O)[C@H](CCCCN)NC(=O)[C@H](CCCCN)NC(=O)[C@@H](NC(=O)[C@H](Cc1ccc(O)cc1)NC(=O)[C@H](CCC(=O)O)NC(=O)[C@H](CCC(=O)O)NC(=O)[C@@H](NC(=O)[C@H](CCCCN)NC(=O)[C@H](CCCCN)NC(=O)[C@H](CC(=O)O)NC(=O)[C@H](Cc1c[nH]c2ccccc12)NC(=O)[C@H](CCC(=O)O)NC(=O)[C@H](CCC(=O)O)NC(=O)[C@H](Cc1c[nH]c2ccccc12)NC(=O)[C@@H]1CCC(=O)N1)[C@@H](C)CC)[C@@H](C)O)[C@@H](C)CC)C(=O)N[C@@H](CCCCN)C(=O)N[C@@H](CCCCN)C(=O)N[C@@H](CO)C(=O)N[C@@H](CCC(=O)O)C(=O)N[C@@H](CCC(=O)O)C(=O)N[C@@H](CCC(N)=O)C(=O)N[C@@H](CCC(N)=O)C(=O)N[C@@H](CCCCN)C(=O)N[C@@H](CCCCN)C(=O)N[C@@H](CC(N)=O)C(=O)N[C@@H](CCC(=O)O)C(=O)N[C@@H](CCC(=O)O)C(=O)N[C@@H](CCC(=O)O)C(=O)N[C@@H](CC(C)C)C(=O)N[C@@H](CCCCN)C(=O)N[C@@H](CCCCN)C(=O)N[C@H]1CCOC1=O` ([pGlu]WEEWDKKIEEYTKKIEELIKKSEEQQKKNEEELKK-{hSer(lactone)}): in data set [1], the EC50 is 0.57 nM. Also, the Stability result with Serum is on record as “Stable”.

“Ac-WEEWDKKIEEYTKKIEELIKKSEEQQKKNEEELKK-NH2”: the EC50 in data set [1] stood at 0.5 nM. The Stability result in the data set with Serum is given as “Stable”.

In the case of “H-WEEWDKKIEEYTKKIEELIKKSEEQQKKNEEELKK-OH”, the EC50 in data set [1] was determined as 2.43 nM. The Stability entry in the data set with Serum was “Unstable”.
